Patent US7414048B2, “4,5-dihydro-isoxazole derivatives and their pharmaceutical use” (Janssen Pharmaceutica, N.V., priority 1998, dated 2008)

System: T cell blast formation in human blood
Test: In vitro inhibition of T cell blast formation in human blood (human whole blood blast formation, PHA stimulated, flow cytometry)
Assay type: cell-based
Details: 72 hours, mean where multiple measurements
Method: Cells are collected after a 72 hours culture period at 37° C., supernatant is removed by centrifugation and red blood cells are lysed by a hypotonic buffer. The remaining white blood cells are collected in PBS containing propidium iodide. The blast formation is analyzed using a benchtop flow cytometer (Cytoron, Ortho) equipped with an argon-ion laser. […] When multiple measurements were performed, a mean value was calculated for the percentage inhibition of T cell blast formation.

[1] = Test Dose 1 × 10^−6 (unit not given)
[2] = Test Dose 3 × 10^−7 (unit not given)
[3] = Test Dose 1 × 10^−7 (unit not given)

## O=C(Nc1cccc2ccccc12)c1ccc(NC(=O)C2CC(c3cccnc3)=NO2)cc1 (stereo not drawn) [Compound 266]
Test Dose 1 × 10^−5 (unit not given)
  % Inhibition of T cell blast formation: 85%

## COc1cccc(OC)c1C(=O)c1ccc(NC(=O)C2CC(c3cccnc3)=NO2)cc1 (stereo not drawn) [Compound 397]
[1]
  % Inhibition of T cell blast formation: 82%

## CC(C)=NOC(c1ccccc1)c1ccc(NC(=O)[C@@H]2CC(c3cccnc3)=NO2)cc1 (stereo partly drawn) [Compound 504, (5S)-4,5-dihydro-N-[4-[[[(1-methylethylidene)amino]oxo]phenylmethyl]phenyl]-3-(3-pyridinyl)-5-isoxazolecarboxamide]
[2]
  % Inhibition of T cell blast formation: 75%

## O=C(/C=C/c1c(F)cccc1F)c1ccc(NC(=O)C2CC(c3cccnc3)=NO2)cc1 (racemic) [Compound 468]
[2]
  % Inhibition of T cell blast formation: 61%

## CC(=O)OCC(C#N)(c1ccccc1)c1ccc(NC(=O)C2CC(c3cccnc3)=NO2)cc1 (stereo not drawn) [Compound 413]
[1]
  % Inhibition of T cell blast formation: 85%

## O=C(NCc1cnc2ccccc2c1)c1ccc(NC(=O)C2CC(c3cccnc3)=NO2)cc1 (stereo not drawn) [Compound 291]
[1]
  % Inhibition of T cell blast formation: 78%

## O=C(/C=C/c1c(F)cccc1Cl)c1ccc(NC(=O)C2CC(c3cccnc3)=NO2)cc1 (racemic) [Compound 476]
[2]
  % Inhibition of T cell blast formation: 67%

## COCCOC(c1ccccc1)c1ccc(NC(=O)C2CC(c3cccnc3)=NO2)cc1 (stereo not drawn) [Compound 416]
[1]
  % Inhibition of T cell blast formation: 87%

## O=C(Nc1ccc(C(=NO)c2ccccc2)cc1)C1CC(c2cccnc2)=NO1 (single isomer, unassigned) [Compound 419]
[3]
  % Inhibition of T cell blast formation: 86%

## O=C(c1ccc(NC(=O)C2CC(c3cccnc3)=NO2)cc1)c1cccnc1 (stereo not drawn) [Compound 387]
[2]
  % Inhibition of T cell blast formation: 78%

## COc1cc(C(=O)c2ccc(NC(=O)C3CC(c4cccnc4)=NO3)cc2)cc(OC)c1OC (stereo not drawn) [Compound 396]
[1]
  % Inhibition of T cell blast formation: 65%

## O=C(Nc1ccc(C(=NO)c2c(F)cccc2F)cc1)C1CC(c2cccnc2)=NO1 (stereo not drawn) [Compound 431]
[2]
  % Inhibition of T cell blast formation: 71%

## O=C(NCc1c(F)cccc1F)c1ccc(NC(=O)C2CC(c3cccnc3)=NO2)cc1 (stereo not drawn) [Compound 279]
[1]
  % Inhibition of T cell blast formation: 74%

## CN(C)C(=O)c1ccc(CNC(=O)c2ccc(NC(=O)C3CC(c4cccnc4)=NO3)cc2)cc1 (stereo not drawn) [Compound 426]
[1]
  % Inhibition of T cell blast formation: 82%
[2]
  % Inhibition of T cell blast formation: 65%

## CN1CCC(N(C)CC(=O)NC(c2ccccc2)c2ccc(NC(=O)C3CC(c4cccnc4)=NO3)cc2)CC1 (stereo not drawn) [Compound 146]
[1]
  % Inhibition of T cell blast formation: 95%

## O=C(/C=C/c1ccccc1C(F)(F)F)c1ccc(NC(=O)C2CC(c3cccnc3)=NO2)cc1 (racemic) [Compound 471]
[2]
  % Inhibition of T cell blast formation: 54%

## COc1ccccc1C(=O)c1ccc(NC(=O)C2CC(c3cccnc3)=NO2)cc1 (stereo not drawn) [Compound 390]
[1]
  % Inhibition of T cell blast formation: 85%

## CC(C#N)(c1ccc(F)cc1)c1ccc(NC(=O)C2CC(c3cccnc3)=NO2)cc1F (stereo not drawn) [Compound 39]
[1]
  % Inhibition of T cell blast formation: 67%

## O=C(c1ccc(NC(=O)C2CC(c3cccnc3)=NO2)cc1)c1ccccn1 (single isomer, unassigned) [Compound 394]
[1]
  % Inhibition of T cell blast formation: 84%

## CN(CC(N)=O)C(c1ccccc1)c1ccc(NC(=O)C2CC(c3cccnc3)=NO2)cc1 (stereo not drawn) [Compound 163]
[2]
  % Inhibition of T cell blast formation: 56%

## CN(C)Cc1csc(NC(=O)C(c2ccccc2)c2ccc(NC(=O)C3CC(c4cccnc4)=NO3)cc2)n1 (stereo not drawn) [Compound 314]
[2]
  % Inhibition of T cell blast formation: 58%

## O=C(/C=C/c1ccccc1)c1ccc(NC(=O)C2CC(c3cccnc3)=NO2)cc1 (racemic) [Compound 478]
[2]
  % Inhibition of T cell blast formation: 70%

## Cc1ccccc1/C=C/C(=O)c1ccc(NC(=O)C2CC(c3cccnc3)=NO2)cc1 (racemic) [Compound 475]
[2]
  % Inhibition of T cell blast formation: 56%

## O=C(NCc1ccc2c(c1)OCO2)c1ccc(NC(=O)C2CC(c3cccnc3)=NO2)cc1 (stereo not drawn) [Compound 295]
[2]
  % Inhibition of T cell blast formation: 35%

## CC(C)(NC(=O)c1ccc(NC(=O)C2CC(c3cccnc3)=NO2)cc1)c1ccccc1 (stereo not drawn) [Compound 259]
[1]
  % Inhibition of T cell blast formation: 51%

## COc1ccc(CNC(=O)c2ccc(NC(=O)C3CC(c4cccnc4)=NO3)cc2)c(OC)c1 (stereo not drawn) [Compound 274]
[1]
  % Inhibition of T cell blast formation: 71%

## CC(=O)Nc1ccccc1NC(c1ccccc1)c1ccc(NC(=O)C2CC(c3cccnc3)=NO2)cc1 (stereo not drawn) [Compound 174]
[1]
  % Inhibition of T cell blast formation: 42%

## O=C(Nc1ccc(C(O)c2ccc(F)cc2F)cc1)C1CC(c2cccnc2)=NO1 (stereo not drawn) [Compound 408]
[2]
  % Inhibition of T cell blast formation: 71%

## CN(C)c1ccc(CNC(=O)c2ccc(NC(=O)C3CC(c4cccnc4)=NO3)cc2)cc1 (stereo not drawn) [Compound 286]
[2]
  % Inhibition of T cell blast formation: 49%

## O=C(Nc1ccc(C(=O)N2CCC(O)(Cc3ccccc3)CC2)cc1)C1CC(c2cccnc2)=NO1 (stereo not drawn) [Compound 304]
[2]
  % Inhibition of T cell blast formation: 36%

## COc1cc(S(N)(=O)=O)ccc1NC(c1ccccc1)c1ccc(NC(=O)C2CC(c3cccnc3)=NO2)cc1 (stereo not drawn) [Compound 119]
[1]
  % Inhibition of T cell blast formation: 54%

## O=C(Nc1ccc(C(NC2CC2)c2ccccc2)cc1)C1CC(c2cccnc2)=NO1 (stereo not drawn) [Compound 90]
[1]
  % Inhibition of T cell blast formation: 33%

## O=C(NCc1cccc(C(F)(F)F)c1)c1ccc(NC(=O)C2CC(c3cccnc3)=NO2)cc1 (stereo not drawn) [Compound 288]
[1]
  % Inhibition of T cell blast formation: 53%

## COc1ccc(CNC(=O)c2ccc(NC(=O)C3CC(c4cccnc4)=NO3)cc2)cc1 (stereo not drawn) [Compound 290]
[1]
  % Inhibition of T cell blast formation: 67%

## O=C(NCCc1ccccc1)c1ccc(NC(=O)C2CC(c3cccnc3)=NO2)cc1 (stereo not drawn) [Compound 258]
[1]
  % Inhibition of T cell blast formation: 59%

## O=C(/C=C/c1ccc2c(c1)OCO2)c1ccc(NC(=O)C2CC(c3cccnc3)=NO2)cc1 (racemic) [Compound 469]
[2]
  % Inhibition of T cell blast formation: 65%

## O=C(Nc1ccc(C(=NO)c2ccc(F)cc2F)cc1)C1CC(c2cccnc2)=NO1 (stereo not drawn) [Compound 435]
[3]
  % Inhibition of T cell blast formation: 81%

## NC(=O)C(c1ccc(Cl)cc1)c1ccc(NC(=O)C2CC(c3cccnc3)=NO2)cc1Cl (stereo not drawn) [Compound 309]
[1]
  % Inhibition of T cell blast formation: 92%

## O=C(Nc1ccc(C(C(=O)NCCN2CCOCC2)c2ccccc2)cc1)C1CC(c2cccnc2)=NO1 (stereo not drawn) [Compound 325]
[2]
  % Inhibition of T cell blast formation: 43%

## O=C(Nc1ccc(C(c2ccccc2)N2CCOCC2)cc1)C1CC(c2cccnc2)=NO1 (stereo not drawn) [Compound 221]
[1]
  % Inhibition of T cell blast formation: 63%

## O=C(Nc1ccc(C(O)c2ccccc2)cc1)[C@@H]1CC(c2cccnc2)=NO1 (stereo partly drawn) [Compound 412]
[2]
  % Inhibition of T cell blast formation: 79%

## O=C(Nc1ccc(Nc2ccccc2)cc1)C1CC(c2cccnc2)=NO1 (stereo not drawn) [Compound 377]
[1]
  % Inhibition of T cell blast formation: 85%

## O.O=C(c1ccccc1)c1ccc(NC(=O)[C@@H]2CC(c3cccnc3)=NO2)cc1 [Compound 491, (S)-N-(4-benzoylphenyl)-4,5-dihydro-3-(3-pyridinyl)-5-isoxazolecarboxamide (1:1) monohydrate]
[3]
  % Inhibition of T cell blast formation: 70%

## CNC(=O)c1ccc(CNC(=O)c2ccc(NC(=O)C3CC(c4cccnc4)=NO3)cc2)cc1 (stereo not drawn) [Compound 427]
[1]
  % Inhibition of T cell blast formation: 80%

## Cn1cnc2cc(NC(c3ccccc3)c3ccc(NC(=O)C4CC(c5cccnc5)=NO4)cc3)ccc21 (stereo not drawn) [Compound 101]
[1]
  % Inhibition of T cell blast formation: 70%

## O=C(Nc1ccc(-c2noc(-c3ccccc3)n2)cc1)C1CC(c2cccnc2)=NO1 (stereo not drawn) [Compound 452]
[1]
  % Inhibition of T cell blast formation: 79%

## CCCCOC(c1ccccc1)c1ccc(NC(=O)C2CC(c3cccnc3)=NO2)cc1.Cl (stereo not drawn) [Compound 417]
[1]
  % Inhibition of T cell blast formation: 42%

## O=C(Nc1ccc(C(=NO)c2ccccc2)cc1)C1CC(c2cccnc2)=NO1 (single isomer, unassigned) [Compound 420]
[1]
  % Inhibition of T cell blast formation: 39%

## O=C(Nc1ccc(C(O)(Cc2cccnc2)c2ccccc2)cc1)C1CC(c2cccnc2)=NO1 (stereo not drawn) [Compound 73]
[2]
  % Inhibition of T cell blast formation: 67%

## Cc1cccc(C(=O)c2ccc(NC(=O)C3CC(c4cccnc4)=NO3)cc2)c1 (stereo not drawn) [Compound 10]
[1]
  % Inhibition of T cell blast formation: 75%

## COc1ccc(C(=NO)c2ccc(NC(=O)C3CC(c4cccnc4)=NO3)cc2)cc1OC (stereo not drawn) [Compound 437]
[2]
  % Inhibition of T cell blast formation: 75%

## O=C(Nc1ccc(C(=NO)c2cnc3ccccc3c2)cc1)C1CC(c2cccnc2)=NO1 (stereo not drawn) [Compound 432]
[1]
  % Inhibition of T cell blast formation: 65%

## O=C(/C=C/c1ccccc1F)c1ccc(NC(=O)C2CC(c3cccnc3)=NO2)cc1 (racemic) [Compound 473]
[2]
  % Inhibition of T cell blast formation: 72%

## O=C(c1ccccc1)c1ccc(NC(=O)C2CC(c3cccnc3)=NO2)nc1 (stereo not drawn) [Compound 371]
[1]
  % Inhibition of T cell blast formation: 62%

## O=C(Cc1ccc(NC(=O)C2CC(c3cccnc3)=NO2)cc1)Nc1ccccc1 (stereo not drawn) [Compound 451]
[2]
  % Inhibition of T cell blast formation: 80%

## Cn1cc(C(=O)c2ccc(NC(=O)C3CC(c4cccnc4)=NO3)cc2)cn1 (stereo not drawn) [Compound 386]
[2]
  % Inhibition of T cell blast formation: 38%

## N#CC(OC(N)=O)(c1ccccc1)c1ccc(NC(=O)C2CC(c3cccnc3)=NO2)cc1 (racemic) [Compound 75, (±)-[cyano[4-[[[4,5-dihydro-3-(3-pyridinyl)-5-isoxazolyl]carbonyl]amino]phenyl]phenylmethyl]carbamate]
[2]
  % Inhibition of T cell blast formation: 67%

## N#CC(OC(=O)c1ccccc1)(c1ccccc1)c1ccc(NC(=O)C2CC(c3cccnc3)=NO2)cc1 (stereo not drawn) [Compound 415]
[1]
  % Inhibition of T cell blast formation: 65%

## CON=C(c1ccccc1)c1ccc(NC(=O)C2CC(c3cccnc3)=NO2)cc1 (stereo not drawn) [Compound 303]
[1]
  % Inhibition of T cell blast formation: 78%

## COc1cccc(CNC(=O)c2ccc(NC(=O)C3CC(c4cccnc4)=NO3)cc2)c1 (stereo not drawn) [Compound 272]
[1]
  % Inhibition of T cell blast formation: 67%

## O=C(c1ccc(NC(=O)C2CC(c3cccnc3)=NO2)cc1)c1cnc2ccccc2c1 (stereo not drawn) [Compound 393]
[1]
  % Inhibition of T cell blast formation: 69%

## COc1ccccc1C(O)c1ccc(NC(=O)C2CC(c3cccnc3)=NO2)cc1 (stereo not drawn) [Compound 409]
[2]
  % Inhibition of T cell blast formation: 88%
